Test results reported in patent EP0480714A2, “HIV protease inhibitors having symmetrical structure” (MERCK & CO. INC., priority 1990, dated 1992).
pIC50: −log10 of the molar value.

Biological target: HIV protease (Human immunodeficiency virus type 1 group M subtype B, UniProt P04585)
Experiment: Assay for inhibition of microbial expressed viral protease (peptide substrate cleavage, HPLC readout)
Type: biochemical
Conditions: protease expressed in Eschericia coli; peptide substrate Val-Ser-Gln-Asn-(betanapthyl)Ala-Pro-Ile-Val 0.5 mg/mL; 50 mM Na acetate, pH 5.5, 30°C, 1 hour; read-out: IC₅₀
Procedure: Assay for Inhibition of Microbial Expressed Viral Protease
Inhibition studies of the reaction of the protease expressed in Eschericia coli with a peptide substrate [Val-Ser-Gln-Asn-(betanapthyl)Ala-Pro-Ile-Val, 0.5 mg/mL at the time the reaction is initiated] were in 50 mM Na acetate, pH 5.5, at 30°C for 1 hour. Various concentrations of inhibitor in 1.0 ul DMAO were added to 25 ul of the peptide solution in water. The reaction is initiated by the addition of 15 ul of 0.33 nM protease (0.11 ng) in a solution of 0.133 M Na acetate pH 5.5 and 0.26% bovine serum albumin. The reaction was quenched with 160 ul of 5% phosphoric acid. Products of the reaction were separated by HPLC (VYDAC wide pore 5 cm C-18 reverse phase, acetonitrile gradient, 0.1% phosphoric acid). The extent of inhibition of the reaction was determined from the peak heights of the products.

pIC50: ~9.15
Structure (SMILES): O=C(N[C@H]1c2ccccc2C[C@H]1O)[C@H](Cc1ccccc1)CC(O)C[C@@H](Cc1ccccc1)C(=O)N[C@H]1c2ccccc2C[C@H]1O [Example 1, N,N-bis-(2(R)-hydroxy-1(S)-indanyl)-2, 6(R,R)diphenylmethyl-4-hydroxy-1,7-heptanediamide]
